Molecular target: MASP-2 CCP2-SP (Homo sapiens (Human), UniProt O00187)
Assay: MASP-2 co-crystallization, X-ray crystallography and structure analysis (H-bonds, van der Waals contacts);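 as to Ligand-pharmacophore element distance, pharmacophore element C2: distance from averaged pharmacophore element to bound ligand; missing value means element absent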;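 as to Ligand-pharmacophore element distance, pharmacophore element C3: distance from averaged pharmacophore element to bound ligand; missing value means element absent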;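 as to Ligand-pharmacophore element distance, pharmacophore element C4: distance from averaged pharmacophore element to bound ligand; missing value means element absent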;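 as to Ligand-pharmacophore element distance, pharmacophore element C5: distance from averaged pharmacophore element to bound ligand; missing value means element absent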
Design: van der Waals contact distance, MASP-2 HIS 483 atom CD2 / van der Waals contact distance, MASP-2 HIS 483 atom NE2 / van der Waals contact distance, SER 654 C to compound atom / van der Waals contact distance, SER 654 O to compound atom / van der Waals contact distance, TRP 655 C to compound atom / van der Waals contact distance, MASP-2 GLY 528 atom CA / van der Waals contact distance TRP 655 atom CZ3 / van der Waals contact distance TRP 655 atom N / van der Waals contact distance TRP 655 atom CE3 / van der Waals contact distance GLY 656 atom C / van der Waals contact distance GLY 656 atom CA / van der Waals contact distance GLY 656 atom O / van der Waals contact distance, MASP-2 TYR 607 atom CD1 / van der Waals contact distance, MASP-2 PRO 606 atom O / d(C3,CA1) / d(CA1,N1)2 / d(H4,O1) / d(H4,O2) / d(O1,O2) / d(CA1,O2) / d(CA6,O1) / d(CA6,O2) / d(CA1,C5) / d(O2,H3) / d(N2,C2) / d(CA5,N2) / d(N2,C4) / d(N2,C6) / d(N2,CA3) / d(N2,O3) / d(O4,H2): unit not given beside the values
How it was run: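 Human MASP-2 CCP2-SP (± 6His) expressed in E. coli and crystallized; crystals soaked in crystallization solution containing inhibitor, cryoprotected with 20% glycerol or frozen directly. Synchrotron data at 1.0 wavelength; molecular replacement from 1Q3X, partial refinement; one ligand pose analyzed; LigPlot+ contacts may include H-bonds.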

[1] = Table A5-1 pharmacophore: distance between elements, S2/S1 region
[2] = Table A5-2 pharmacophore distance, S3/S4 region
[3] = Table A7-1, between pharmacophore elements of the bound compound

Sequence of MASP-2 CCP2-SP (O00187 445-686): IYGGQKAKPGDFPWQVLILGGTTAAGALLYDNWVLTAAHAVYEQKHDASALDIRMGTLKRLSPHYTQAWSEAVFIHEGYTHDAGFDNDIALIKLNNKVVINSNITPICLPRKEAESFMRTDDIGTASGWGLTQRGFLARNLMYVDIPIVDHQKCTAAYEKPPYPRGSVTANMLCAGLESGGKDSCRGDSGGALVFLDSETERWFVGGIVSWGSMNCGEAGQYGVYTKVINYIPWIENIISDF
Sequence of MASP-2 CCP2-SP (O00187 364-432 partner): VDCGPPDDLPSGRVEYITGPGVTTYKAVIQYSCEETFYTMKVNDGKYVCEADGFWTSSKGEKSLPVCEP

## Cc1nc(N)ccc1CNC(=O)[C@H](C)NC(=O)[C@H]1C[C@@H](c2cccc3ccccc23)CCN1 [compound 1297, (2R,4S)—N—((S)-1-(((6-Amino-2-methylpyridin-3-yl)methyl)amino)-1-oxopropan-2-yl)-4-(naphthalen-1-yl)piperidine-2-carboxamide]
Table A1 (H-Bonds), ASP 627 OD2
  H-bond distance to MASP-2 ASP 627 atom OD2: 3.13
Table A1 (H-Bonds), GLY 656 N
  H-bond distance to MASP-2 GLY 656 atom N: 3.33
Table A1 (H-Bonds), GLY 656 O
  H-bond distance to MASP-2 GLY 656 atom O: 2.67
Table A1 (H-Bonds), SER 628 O
  H-bond distance to MASP-2 SER 628 atom O: 2.96
Table A1 (H-Bonds), SER 654 O
  H-bond distance to MASP-2 SER 654 atom O: 2.88
Table A1 (H-Bonds), SER 657 O
  H-bond distance to MASP-2 SER 657 atom O: 3.06
Table A2-1
  van der Waals contact distance, MASP-2 HIS 483 atom CD2: 3.74
  van der Waals contact distance, MASP-2 HIS 483 atom NE2: 3.84
Table A2-2
  van der Waals contact distance, MASP-2 GLY 528 atom CA: 3.76
Table A2-4
  van der Waals contact distance, MASP-2 TYR 607 atom CD1: 3.81
Table A2-9, ARG 630, AA atoms CG, CZ
  van der Waals contact distance, MASP-2 amino acid atom to compound atom: 3.47
Table A2-11
  van der Waals contact distance, VAL 653 CG1 to compound atom: 3.22
Table A2-12
  van der Waals contact distance, SER 654 O to compound atom: 3.51
  van der Waals contact distance, TRP 655 C to compound atom: 3.89
  van der Waals contact distance, TRP 655 CA to compound atom: 3.49
Table A2-13, MASP-2 TRP 655 CE3, compound atom in line below
  van der Waals contact distance TRP 655 atom CE3: 3.54

## C[C@H](NC(=O)[C@H]1C[C@@H](c2ccccc2)CCN1)C(=O)NCc1cc(Cl)ccc1O.Cl [1078_7]
Table A4-1, element C2
  Ligand-pharmacophore element distance, pharmacophore element C2: 0.64
Table A4-1, element C3
  Ligand-pharmacophore element distance, pharmacophore element C3: 0
Table A4-1, element C4
  Ligand-pharmacophore element distance, pharmacophore element C4: 0
Table A4-1, element C5
  Ligand-pharmacophore element distance, pharmacophore element C5: 0.61
Table A4-1, element C6
  Ligand-pharmacophore element distance, pharmacophore element C6: 0
Table A4-1, element C7
  Ligand-pharmacophore element distance, pharmacophore element C7: 0
Table A4-1, element CA1
  Ligand-pharmacophore element distance, pharmacophore element CA1: 1.69
Table A4-1, element CA2
  Ligand-pharmacophore element distance, pharmacophore element CA2: 0.55
Table A4-1, element CA3
  Ligand-pharmacophore element distance, pharmacophore element CA3: 0
Table A4-1, element CA4
  Ligand-pharmacophore element distance, pharmacophore element CA4: 0
Table A4-1, element CA5
  Ligand-pharmacophore element distance, pharmacophore element CA5: 0
Table A4-1, element CA6
  Ligand-pharmacophore element distance, pharmacophore element CA6: 0
[1]
  d(CA1,C5): 3.14
  d(CA1,O1): 4.83
  d(CA1,O2): 4.83
  d(CA1,O4): 2.77
  d(H4,O1): 2.08
  d(H4,O2): 2.49
  d(O1,O2): 3.35
  d(O4,H2): 0.97
[2]
  d(N2,C2): 1.47
  d(N2,CA2): 5.74
  d(O2,H3): 3.26
  d(O2,N2): 3.04
Table A6-1 pharmacophore angle
  a(C5, CA1, O1): 158.86
  a(CA1, O1, O2): 110.36
  a(CA1, O4, H2): 126.10
  a(O1, CA1, O4): 67.29
  a(O1, O2, H4): 86.28
Table A6-2 pharmacophore angle
  a(O1, O2, H3): 137.32
  a(O1, O2, N2): 140.50
  a(O2, N2, C2): 114.22
  a(O2, N2, CA2): 151.33
[3]
  Pharmacophore torsion angle a(C5, CA1, O1, H4): 30.48
  Pharmacophore torsion angle a(H4, O1, O2, H3): −121.10
  Pharmacophore torsion angle a(H4, O1, O2, N2): −116.26
  Pharmacophore torsion angle a(O1, H4, O2, CA1): −57.85
  Pharmacophore torsion angle a(O1, O2, N2, C2): 144.61
Table A7-2, between pharmacophore elements of the bound compound
  Pharmacophore torsion angle a(O1, O2, N2, CA2): 143.84
